Assay results reported in US20030040510A1, “Selective estrogen receptor modulators in combination with estrogens” (Endorecherche, Inc., priority 2000, published 2003).
Marks after values point to notes of the source that are not given here.

Assays:
ovariectomized rats = test: 5-diol alone or with Flutamide and/or EM-800 for 12 months in ovariectomized rats (bone mass, serum markers)
endometrial epithelium = test: Thickness of uterine (endometrial) epithelial cells in the mice of Example 8; type: in vivo, nude mice; settings: for Endometrial epithelium thickness: OVX + antiestrogen 200 μg daily, no estrone, 161 days
Description: The 17 groups included two control groups (OVX and OVX+Estrone), seven groups supplemented with an estrone implant and treated with an antiestrogen and eight other groups that received an antiestrogen alone. The estrone implants were then removed from the animals in the ovariectomized control group (OVX) and in groups that were to receive the antiestrogen alone. […] Tamoxifen was purchased from […], Israel) while toremifene citrate was purchased from Orion (Espoo, Finland). […] Animals in both control groups received 0.2 ml of the vehicle alone. The antiestrogen suspensions at the appropriate concentration were prepared each month, stored at 4° C. and used under constant agitation. Powder stock were hermetically stored at 4° C. […] After 161 days of treatment, the remaining animals were anesthetized with isoflurane and killed by exsanguination. […] The uteri were prepared to evaluate endometrial thickness by image analysis performed with Image Pro-Plus (Media Cybernetics, Maryland, USA). […] Hematoxylin- and eosin-stained sections of mice uteri were analysed. […] Mean epithelial cell height was measured in all animals of each group.

ZR-75-1 breast tumors = test: Growth and response category of human ZR-75-1 breast tumors in OVX nude mice, 7 antiestrogens, 161 days (Example 8); type: in vivo; settings: 161 days; for Change of ZR-75-1 tumor size compared to the OVX control group: 200 μg daily alone
Method: The mice (5 per cage) were housed in vinyl cages equipped with air filter lids, which were kept in laminar airflow hoods and maintained under pathogen-limiting conditions. The photoperiod was 12 hours of light and 12 hours of darkness (lights on at 07:15). Cages, bedding and food (Agway Pro-Lab R-M-H Diet #4018) were autoclaved before use. Water was autoclaved and provided ad libitum. Bilateral ovariectomy was performed under isoflurane-induced anesthesia. […] Randomization and treatments were started one week later. […] The 17 groups included two control groups (OVX and OVX+Estrone), seven groups supplemented with an estrone implant and treated with an antiestrogen and eight other groups that received an antiestrogen alone. The estrone implants were then removed from the animals in the ovariectomized control group (OVX) and in groups that were to receive the antiestrogen alone. […] Tamoxifen was purchased from […], Israel) while toremifene citrate was purchased from Orion (Espoo, Finland). […] Animals in both control groups received 0.2 ml of the vehicle alone. The antiestrogen suspensions at the appropriate concentration were prepared each month, stored at 4° C. and used under constant agitation. Powder stock were hermetically stored at 4° C. […] Tumor response was assessed at the end of the study or at death of each animal, if it occurred during the course of the experiment. In this case, only data of mice that survived for at least half of the study (84 days) were used in the tumor response analysis.

[1] = tested on: breast and endometrial tissues; test: Antiestrogens tested for SERM function and estrogenic activity in breast and endometrium; settings: for Estrogenic activity in breast and endometrial tissues: physiological or pharmacological concentrations
Description: As used herein, a selective estrogen receptor modulator (SERM) is a compound that either directly or through its active metabolite functions as an estrogen receptor antagonist (“antiestrogen”) in breast tissue, yet provides estrogenic or estrogen-like effect on bone tissue and on serum cholesterol levels (i.e. by reducing serum cholesterol). Non-steroidal compounds that function as estrogen receptor antagonists in vitro or in human or rat breast tissue (especially if the compound acts as an antiestrogen on human breast cancer cells) is likely to function as a SERM. Conversely, steroidal antiestrogens tend not to function as SERMs because they tend not to display any beneficial effect on serum cholesterol. […] These SERMs may be called “pure SERMs”. […] This second series of SERMs may be called “mixed SERMs”. The unwanted estrogenic activities of these “mixed SERMs”, may be inhibited by addition of pure “SERMs” as shown in FIGS. 6 and 7 in in vitro tests and in FIG. 9 in an in vivo test of breast cancer.

[2] = tested on: uterus and vagina of ovariectomized mice; test: Uterine and vaginal weight in ovariectomized mice treated or not with estrone (9 days oral); type: in vivo, BALB/c mice
Method: (St-Constant, Quebec, Canada) and housed 5 per cage in a temperature (23±1° C.)—and light (12 h light/day, lights on at 7:15)—controlled environment. The mice were fed rodent chow and tap water ad libitum. […] Ten mice were kept intact as controls. […] Compounds were dissolved in ethanol (4% final concentration) and administered in 0.4% methylcellulose. Mice in the intact and OVX control groups received the vehicle alone (4% ETOH-0.4% methylcellulose) during the 9-day period. The animals were killed by exsanguination at the abdominal aorta on the 11th morning following ovariectomy.

[3] = tested on: ovariectomized rats supplemented with 17β-estradiol; test: EM-652.HCl with oral 17β-estradiol for 2 weeks in OVX rats: uterus, endometrial epithelium, vagina, serum cholesterol (Example 10); type: in vivo, Sprague-Dawley rats
Method: Ten to twelve week-old female Sprague-Dawley rats (Crl:CD(SD)Br) (Charles River Laboratory, St-Constant, Canada) weighing 215-265 g at time of ovariectomy were used. The animals were housed individually in an environmentally-controlled room (temperature: 22±3° C.; humidity: 50±20%; 12-h light-12-h dark cycles, lights on at 07:15 h). The animals were allowed free access to tap water and a certified rodent feed (Lab Diet 5002 (pellet), Ralston Purina, St-Louis, Mo.). The experiment was conducted in an animal facility approved by the Canadian Council on Animal Care (CCAC) and the Association for Assessment and Accreditation of Laboratory Animal Care (AAALAC) in accordance with the CCAC Guide for Care and Use of Experimental Animals.
On the first day of the study, the animals of the appropriate groups were bilaterally ovariectomized (OVX) under isoflurane anesthesia. The tested compounds were then given once daily by oral gavage as a suspension in 0.4% methylcellulose (0.5 ml/rat) from day 1 to day 14 of the study. Animals of groups 1 and 2 received the vehicle alone during the same time period. On day 15 of the study, 4 animals per group were perfused with 10% buffered formalin and tissues were processed for histological examination. The other animals were killed by exsanguination at the abdominal aorta under isoflurane anesthesia. The uterus and vagina were removed, stripped of remaining fat and weighed. A specimen from each uterus was fixed in 10% buffered formalin for determination of the height of endometrial epithelial cells using a computerized-assisted program (Software Image-Pro Plus).
Total cholesterol was measured on serum samples collected from overnight fasted animals using a Boehringer Mannheim Diagnostic Hitachi 911 Analyzer (Boehringer Mannheim Diagnostic Laboratory Systems).

[4] = tested on: ovariectomized female rats; test: Prevention of bone loss, body fat, serum cholesterol and ALP, 3-month treatment of OVX rats (Example 5A, experiment 1); type: in vivo, Sprague-Dawley rats; settings: 3 months; for Serum ALP: OVX rats
Method: (§1) Ten to twelve week-old female Sprague-Dawley rats (Crl:CD(SD)Br) (Charles River Laboratory, St-Constant, Canada) weighing approximately 220-270 g at start of treatment were used. The animals were acclimatized to the environmental conditions (temperature: 22±3° C.; humidity: 50±20%; 12-h light-12-h dark cycles, lights on at 07:15 h) for at least 1 week before starting the experiments. The animals were housed individually and were allowed free access to tap water and a pelleted certified rodent feed (Lab Diet 5002, Ralston Purina, St-Louis, Mo.). Experiments were conducted in an animal facility approved by the Canadian Council on Animal Care (CCAC) and the Association for Assessment and Accreditation of Laboratory Animal Care (AAALAC) in accordance with the CCAC Guide for Care and Use of Experimental Animals.
On day 1 of the study, the animals of the appropriate groups were bilaterally ovariectomized (OVX) under isoflurane anesthesia. […] Treatments were initiated on day 2 of the study and were performed once daily during 3 months.
After 3 months (experiment 1) or 26 weeks (experiment 2) of treatment, individual rats under Isoflurane anesthesia had their whole body skeleton and lumbar spine scanned using dual energy x-ray absorptiometry (DEXA; QDR 4500A, Hologic, Waltham, Mass.) and a Regional High Resolution Scan software. The bone mineral density (BMD) of the lumbar spine (vertebrae L2 to L4) and the total body composition (fat percentage) were determined.
After 3 months (experiment 1) or 26 weeks (experiment 2) of treatment, blood samples were collected at the jugular vein from overnight fasted animals (under Isoflurane anesthesia). Samples were processed for serum preparation and frozen at −80° C. until assay. Serum cholesterol levels and alkaline phospatase activity (ALP) were determined using the Boehringer Mannheim Diagnostic Hitachi 911 Analyzer (Boehringer Mannheim Diagnostic Laboratory Systems).

[5] = tested on: OVX rats having established osteopenia; test: Treatment of OVX rats having established osteopenia, 26 weeks (Example 5B): BMD, total body fat; type: in vivo, Sprague-Dawley rats; settings: treatment started 10 weeks after OVX, 26 weeks daily
Method: as §1, with “Height” for “Ten”, “nine month-old” for “twelve week-old”, “Canada)” for “Canada) weighing approximately 220-270 g at start of treatment”, “used in this experiment.” for “used.”, “prior to” for “before starting”, “ovariectomy. Animals were bilaterally ovariectomized (OVX) under isoflurane anesthesia. Twenty animals were kept intact as control.” for “experiments.”
Treatments were initiated 10 weeks after the ovariectomy and were performed once daily during 26 weeks. Animals not receiving a test article were treated with the appropriate vehicle alone during the same period.
Prior to the OVX, prior to the first day treatment (10 weeks after OVX) and after 26 weeks of treatment, individual rats under Isoflurane anesthesia had their whole body skeleton, lumbar spine and right femur scanned using dual energy x-ray absorptiometry (DEXA; QDR 4500A, Hologic, Waltham, Mass.) and a Regional High Resolution Scan software. The bone mineral density (BMD) of the lumbar spine (vertebrae L2 to L4), femur and the total body composition (fat percentage) were determined.

[6] = 10 μg alone, absence of estrone, OVX mice

CC(C)C(=O)Nc1ccc([N+](=O)[O-])c(C(F)(F)F)c1 [FLU, Flutamide]
Reversal of 5-diol-stimulated serum alkaline phosphatase activity (ovariectomized rats; simultaneous FLU, vs 12.5 mg 5-diol alone): 57%

CC/C(=C(\c1ccc(I)cc1)c1ccc(OCCN2CCCC2)cc1)c1ccccc1 [Idoxifene, (E)-1-[2-[4-[1-(4-Iodophenyl)-2-phenyl-1-butenyl]phenoxy]ethyl]pyrrolidine]
Inhibition of the stimulatory effect of estrone on epithelial height (endometrial epithelium; 50 μg daily oral + estrone): 50% | Progressing tumors (ZR-75-1 breast tumors; 50 μg daily + estrone): 71% | Progressing tumors (ZR-75-1 breast tumors; 200 μg daily, absence of estrone): 33% | Function as SERM [1]: found to function as SERMs | Estrogenic activity in breast and endometrial tissues [1]: have some estrogenic activities

Cl.O=C(c1ccc(OCCN2CCCCC2)cc1)c1c(-c2ccc(O)cc2)sc2cc(O)ccc12 [Raloxifene, [2-(4-hydroxyphenyl)-6-hydroxybenzo[b]thien-3-yl][4-[2-(1-piperidinyl)ethoxy]phenyl]-methanone hydrochloride]
Endometrial epithelium thickness (endometrial epithelium): 22.33^a ± 0.05 μm | Stimulation of uterine weight [2, 6]: 85% | Stimulation of vaginal weight [2, 6]: 56% | Inhibition of estrone-stimulated vaginal weight ([2]; 10 μg daily oral, 9 days, OVX mice + E1): 24% | Progressing tumors (ZR-75-1 breast tumors; 50 μg daily + estrone): 81% | Change of ZR-75-1 tumor size compared to the OVX control group (ZR-75-1 breast tumors; absence of estrone): did not significantly change | Function as SERM [1]: found to function as SERMs | Estrogenic activity in breast and endometrial tissues [1]: have some estrogenic activities

C[C@]12CC[C@H]3[C@@H](CC=C4C[C@@H](O)CC[C@@]43C)[C@@H]1CC[C@@H]2O [5-diol, androst-5-ene-3β,17β-diol]
Serum alkaline phosphatase activity (ovariectomized rats; 5-diol): marked stimulation | Urinary ratio of calcium to creatinine (ovariectomized rats; 5-diol): no statistically significant inhibitory effect | Reduction of serum cholesterol (ovariectomized rats; highest dose of 5-diol): 23%

C[C@]12CC[C@@H]3c4ccc(O)cc4CC[C@H]3[C@@H]1CC[C@@H]2O [E2, 17β-estradiol, reference compound]
Endometrial epithelial height ([3]; OVX + E2 2 mg/kg): 41.9±1.2 μm | Endometrial epithelial height higher than in intact control animals ([3]; OVX + E2 2 mg/kg): 34.7% | Inhibition of serum cholesterol levels ([3]; OVX + E2 2 mg/kg): 53% | Vaginal weight ([3]; OVX + E2 2 mg/kg): 149.9 ± 9.0 mg | Uterine weight ([3]; OVX + E2 2 mg/kg oral daily, 2 weeks): 490 ± 26 mg | Serum ALP [4]: 59 ± 4 IU/L | Femoral BMD [5]: completely prevented the further decrease | Lumbar spine BMD [5]: completely prevented the further decrease | Total body fat [5]: prevented the 17% increase

CC/C(=C(\c1ccccc1)c1ccc(/C=C/C(=O)O)cc1)c1ccccc1 [GW 5638]
Endometrial epithelium thickness (endometrial epithelium): 22.22^a ± 0.05 μm | Serum ALP [4]: 72 ± 6 IU/L | OVX-induced increase on serum cholesterol levels ([4]; alone or in combination with E2): completely prevented | Progressing tumors (ZR-75-1 breast tumors; 50 μg daily + estrone): 77% | Change of ZR-75-1 tumor size compared to the OVX control group (ZR-75-1 breast tumors; absence of estrone): did not significantly change | Function as SERM [1]: found to function as SERMs | Estrogenic activity in breast and endometrial tissues [1]: have some estrogenic activities

CC/C(=C(/c1ccc(OCCN(C)C)cc1)c1cccc(O)c1)c1ccccc1 [Droloxifene, (E)-3-[1-[4-[2-(Dimethylamino)ethoxy]phenyl]-2-phenyl-1-butenyl]phenol]
Endometrial epithelium thickness (endometrial epithelium): 18.50 ± 0.07 μm | Progressing tumors (ZR-75-1 breast tumors; 50 μg daily + estrone): 100% | Change of ZR-75-1 tumor size compared to the OVX control group (ZR-75-1 breast tumors; absence of estrone): did not significantly change | Function as SERM [1]: found to function as SERMs | Estrogenic activity in breast and endometrial tissues [1]: have some estrogenic activities
